# Test results: ChEMBL document CHEMBL4219123, “Synthesis of new analogs of tetraiodothyroacetic acid (tetrac) as novel angiogenesis inhibitors for treatment of cancer” (Bioorg Med Chem Lett, 2018)
# Activity calls are given as the source filed them. The calls are words filed in the database; no cut-off is given here.
# System: Mus musculus
# Assay: Antiangiogenic activity in C57/B6 mouse injected with matrigel containing murine vascular growth factor assessed as reduction in hemoglobin content in matrigel plug at 10ug/10ull to 200 uL matrigel administered subcutaneously measured after 14 days by spectrophotometry-based Drabkin method
# Type: functional, organism-based
row,SMILES,Activity
1,O=C(O)Cc1cc(I)c(Oc2cc(I)c(O)c(I)c2)c(I)c1,Active
2,O=C(O)Cc1cc(I)c(Oc2cc(I)c(OCc3cccnc3)c(I)c2)c(I)c1,Active
3,O=C(O)Cc1cc(I)c(Oc2cc(I)c(OCCCc3ccccc3)c(I)c2)c(I)c1,Active
4,O=C(O)Cc1cc(I)c(Oc2cc(I)c(OCCN3C(=O)c4ccccc4C3=O)c(I)c2)c(I)c1,Active
5,C#CCOc1c(I)cc(Oc2c(I)cc(CC(=O)O)cc2I)cc1I,Active
6,O=C(O)Cc1cc(I)c(Oc2cc(I)c(OCCCN3C(=O)c4ccccc4C3=O)c(I)c2)c(I)c1,Active
